Read-outs that look alike come from different tables or passages of the source.
Columns and labels:
EGFR-kinase domain = molecular target: T1, EGFR-kinase domain (Homo sapiens, UniProt P00533); test: In vitro inhibition of EGFR (Flash Plate assay); assay type: biochemical; settings: full dose response 1.10^−6M to 1.10^−10M, read-out: C12 EGFR flash Score
T1 construct: 0.5 μg EGFR-kinase domain/well
Experimental: The in vitro inhibition of EGFR was assessed using either the Flash Plate technology or the glass-fiber filter technology as described by Davies, S. P. et al., Biochem J. (2000), 351; p. 95-105. The Flash Plate technology is generally described by B. A. Brown et al. in High Throughput Screening (1997), p. 317-328. Editor(s): Devlin, John P. Publisher: Dekker, New York, N.Y.
In the Flash Plate EGFR kinase reaction assay, a kinase substrate consisting of biotinylated poly(L-glutamic acid-L-tyrosine) (poly(GT)biotin), is incubated with the aforementioned protein in the presence of (^33P) radiolabeled ATP. (^33P) phosphorylation of the substrate is subsequently measured as light energy emitted using a streptavidin-coated Flash Plate (PerkinElmer Life Sciences) by trapping and quantifying the binding of the biotin tagged and radiolabeled substrate.
The EGFR kinase reaction is performed at 30° C. for 60 minutes in a 96-well microtiter FlashPlate (PerkinElmer Life Sciences). For each of the tested compounds a full dose response 1.10^−6M to 1.10^−10M has been performed. IRESSA® and Tarceva™ (erlotinib) were used as reference compounds. The 100 μl reaction volume contains 54.5 mM TrisHCl pH 8.0, 10 mM MgCl2, 100 μM Na3VO4, 5.0 μM unlabeled ATP, 1 mM DTT, 0.009% BSA, 0.8 μCi AT^33P, 0.35 μg/well poly(GT)biotin and 0.5 μg EGFR-kinase domain/well.
The reaction is stopped by aspirating the reaction mixture and washing the plate 3× with 200 μl wash/stop buffer (PBS+100 mM EDTA). After the final wash step 200 μl of wash/stop buffer was added to each well and the amount of phosphorylated (^33P) Poly(GT)biotin determined by counting (30 sec/well) in a microtiterplate scintillation counter.

ErbB2 (h) = ErbB2 (h) (Homo sapiens, UniProt P04626); test: ErbB2 human kinase assay (filter); assay type: biochemical; settings: read-out: C13 ERBB 2 Filter Score
Sequence of ErbB2 (h) (P04626 23-1255): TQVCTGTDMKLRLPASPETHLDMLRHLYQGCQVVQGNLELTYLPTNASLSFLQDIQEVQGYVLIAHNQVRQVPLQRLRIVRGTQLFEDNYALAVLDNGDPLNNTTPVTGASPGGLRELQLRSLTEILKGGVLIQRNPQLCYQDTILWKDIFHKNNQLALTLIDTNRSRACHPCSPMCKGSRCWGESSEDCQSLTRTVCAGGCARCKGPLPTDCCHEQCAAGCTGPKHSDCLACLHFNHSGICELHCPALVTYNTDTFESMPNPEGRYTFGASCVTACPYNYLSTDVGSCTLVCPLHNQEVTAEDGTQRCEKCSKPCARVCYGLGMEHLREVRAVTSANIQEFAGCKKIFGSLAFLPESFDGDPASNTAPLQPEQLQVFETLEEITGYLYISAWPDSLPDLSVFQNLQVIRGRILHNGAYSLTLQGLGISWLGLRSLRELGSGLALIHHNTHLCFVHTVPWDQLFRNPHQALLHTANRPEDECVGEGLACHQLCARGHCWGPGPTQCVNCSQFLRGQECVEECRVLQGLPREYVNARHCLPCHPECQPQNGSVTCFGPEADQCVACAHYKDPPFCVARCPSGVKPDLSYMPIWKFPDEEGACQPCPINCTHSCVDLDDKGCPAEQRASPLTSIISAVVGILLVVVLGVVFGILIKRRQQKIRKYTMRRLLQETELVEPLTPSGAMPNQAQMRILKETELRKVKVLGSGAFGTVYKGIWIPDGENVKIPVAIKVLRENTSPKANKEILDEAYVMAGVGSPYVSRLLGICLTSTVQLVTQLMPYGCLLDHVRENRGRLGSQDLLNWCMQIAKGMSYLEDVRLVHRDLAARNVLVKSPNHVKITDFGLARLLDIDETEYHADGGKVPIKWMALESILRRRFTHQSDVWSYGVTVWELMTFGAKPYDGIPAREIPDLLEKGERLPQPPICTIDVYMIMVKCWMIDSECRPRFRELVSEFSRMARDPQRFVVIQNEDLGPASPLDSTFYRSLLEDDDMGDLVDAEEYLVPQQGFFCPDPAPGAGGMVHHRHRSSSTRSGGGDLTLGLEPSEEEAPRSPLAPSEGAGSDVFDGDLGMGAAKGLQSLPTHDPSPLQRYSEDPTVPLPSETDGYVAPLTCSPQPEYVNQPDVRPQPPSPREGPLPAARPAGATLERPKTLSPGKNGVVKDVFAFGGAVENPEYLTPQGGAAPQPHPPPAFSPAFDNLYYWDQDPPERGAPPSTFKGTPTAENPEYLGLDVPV
Experimental: (§1) Similarly to the above the in vitro inhibition of two other kinases, i.e. human ErbB2 and human ErbB4 was tested for some of the compounds according to the invention.
(§2) In a final reaction volume of 25 μl, ErbB2 (h) (5-10 mU) is incubated with 8 mM MOPS pH 7.0, 0.2 mM EDTA, 10 mM MnCl2, 0.1 mg/ml poly(Glu, Tyr) 4:1, 10 mM MgAcetate and [γ-33P-ATP] (specific activity approx. 500 cpm/pmol, concentration as required). The reaction is initiated by the addition of the MgATP mix. After incubation for 40 minutes at room temperature, the reaction is stopped by the addition of 5 μl of a 3% phosphoric acid solution. 10 μl of the reaction is then spotted onto a Filtermat A and washed three times for 5 minutes in 75 mM phosphoric acid and once in methanol prior to drying and scintillation counting.

Abl (h) = Abl (h) (Homo sapiens, UniProt P00519); test: Abl human kinase assay (glass-fiber filter); assay type: biochemical; settings: test concentration of 10^−6M; read-out: C1 score (inhibition of Abl human)
cSRC (h) = cSRC (h) (Homo sapiens, UniProt P12931); test: cSRC human kinase assay (glass-fiber filter); assay type: biochemical; settings: test concentration of 10^−6M; read-out: C3 score (inhibition of cSRC human)
Method in brief: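 Radiometric assay: kinase and substrate are incubated with [33P]ATP, with the reaction started by MgATP mix. The reaction is spotted on P30 filtermat, washed in 75 mM phosphoric acid and methanol, and the bound 33P is measured by scintillation counting.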

Fes (h) = Fes (h) (Homo sapiens, UniProt P07332); test: Fes human kinase assay (glass-fiber filter); assay type: biochemical; settings: test concentration of 10^−6M; read-out: C4 score (inhibition of Fes human)
Sequence of Fes (h) (P07332 whole entry): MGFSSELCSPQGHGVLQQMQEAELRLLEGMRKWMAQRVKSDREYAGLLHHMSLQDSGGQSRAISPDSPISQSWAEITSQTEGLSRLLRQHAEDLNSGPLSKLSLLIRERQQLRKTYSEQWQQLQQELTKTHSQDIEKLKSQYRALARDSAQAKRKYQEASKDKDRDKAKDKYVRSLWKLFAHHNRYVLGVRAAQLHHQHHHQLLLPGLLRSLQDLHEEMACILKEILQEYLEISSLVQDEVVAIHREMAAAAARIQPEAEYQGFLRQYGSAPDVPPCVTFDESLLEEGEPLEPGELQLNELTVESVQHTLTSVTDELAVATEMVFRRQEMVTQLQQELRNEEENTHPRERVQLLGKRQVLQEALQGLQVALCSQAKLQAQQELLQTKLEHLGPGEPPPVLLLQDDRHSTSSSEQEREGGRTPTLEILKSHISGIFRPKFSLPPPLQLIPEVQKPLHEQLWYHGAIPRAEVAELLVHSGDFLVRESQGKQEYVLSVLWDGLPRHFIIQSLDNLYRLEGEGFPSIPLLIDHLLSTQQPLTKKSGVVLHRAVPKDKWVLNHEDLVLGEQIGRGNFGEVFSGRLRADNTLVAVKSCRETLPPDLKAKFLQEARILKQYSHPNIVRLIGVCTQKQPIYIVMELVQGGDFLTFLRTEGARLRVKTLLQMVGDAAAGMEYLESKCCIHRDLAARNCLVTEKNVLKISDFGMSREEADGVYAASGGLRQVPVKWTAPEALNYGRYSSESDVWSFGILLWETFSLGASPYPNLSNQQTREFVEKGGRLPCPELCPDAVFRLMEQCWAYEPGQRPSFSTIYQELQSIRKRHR
Method in brief: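 Human Fes (5–10 mU) was incubated with 0.1 mg/ml poly(Glu,Tyr) 4:1 in 8 mM MOPS pH 7.0, 0.2 mM EDTA, 10 mM Mg acetate and [γ-33P]ATP for 40 min at room temperature. The reaction was stopped with phosphoric acid, and substrate phosphorylation was quantified by filter binding and scintillation counting.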

Flt3 (h) = Flt3 (h) (Homo sapiens, UniProt P36888); test: Flt3 human kinase assay (glass-fiber filter); assay type: biochemical; settings: test concentration of 10^−6M; read-out: C6 score (inhibition of Flt3 human)
Sequence of Flt3 (h) (P36888 27-993): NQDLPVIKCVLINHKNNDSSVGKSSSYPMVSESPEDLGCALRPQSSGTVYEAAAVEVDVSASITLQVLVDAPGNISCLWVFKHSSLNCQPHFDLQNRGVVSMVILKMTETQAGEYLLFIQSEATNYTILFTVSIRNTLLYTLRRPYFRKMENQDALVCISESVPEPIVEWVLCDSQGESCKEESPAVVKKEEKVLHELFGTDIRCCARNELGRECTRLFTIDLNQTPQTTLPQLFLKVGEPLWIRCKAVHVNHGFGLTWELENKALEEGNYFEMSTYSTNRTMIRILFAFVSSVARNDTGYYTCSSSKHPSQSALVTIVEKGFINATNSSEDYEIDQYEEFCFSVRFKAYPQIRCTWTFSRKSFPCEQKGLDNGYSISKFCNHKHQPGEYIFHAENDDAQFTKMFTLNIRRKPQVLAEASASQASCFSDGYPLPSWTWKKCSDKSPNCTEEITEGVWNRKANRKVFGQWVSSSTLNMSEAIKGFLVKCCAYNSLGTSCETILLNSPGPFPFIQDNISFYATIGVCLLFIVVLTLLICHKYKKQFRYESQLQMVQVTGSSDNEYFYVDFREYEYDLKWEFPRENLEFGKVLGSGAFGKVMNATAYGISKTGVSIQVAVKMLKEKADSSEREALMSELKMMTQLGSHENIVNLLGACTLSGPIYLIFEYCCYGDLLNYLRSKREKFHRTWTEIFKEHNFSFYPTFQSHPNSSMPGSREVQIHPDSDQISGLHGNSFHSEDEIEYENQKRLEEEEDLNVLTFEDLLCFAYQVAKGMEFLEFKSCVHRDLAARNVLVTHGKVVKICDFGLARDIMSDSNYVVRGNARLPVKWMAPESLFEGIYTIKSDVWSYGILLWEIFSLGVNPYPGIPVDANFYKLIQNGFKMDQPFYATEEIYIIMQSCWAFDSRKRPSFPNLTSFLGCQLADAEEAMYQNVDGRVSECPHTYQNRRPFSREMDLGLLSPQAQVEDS
Method in brief: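 Human Flt3 (5-10 mU) with 50 μM peptide substrate in 8 mM MOPS pH 7.0, 0.2 mM EDTA, 10 mM Mg acetate and [γ-33P]ATP (concentration as required), 40 min at room temperature. Reaction stopped with phosphoric acid; substrate 33P incorporation counted on P30 glass-fiber filter.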

Fms (h) = Fms (h) (Homo sapiens, UniProt P07333); test: Fms human kinase assay (glass-fiber filter); assay type: biochemical; settings: test concentration of 10^−6M; read-out: C7 score (inhibition of Fms human)
Method in brief: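 Radiometric filter-binding assay: Fms (5-10 mU) with 250 μM peptide substrate and [γ-33P]ATP in 8 mM MOPS pH 7.0, 10 mM Mg acetate, 40 min at room temperature. Reaction stopped with phosphoric acid; substrate-bound 33P counted on P30 filtermat.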

Lck (h) = Lck (h) (Homo sapiens, UniProt P06239); test: Lck human kinase assay (glass-fiber filter); assay type: biochemical; settings: test concentration of 10^−6M; read-out: C9 score (inhibition of Lck human)
Sequence of Lck (h) (P06239 whole entry): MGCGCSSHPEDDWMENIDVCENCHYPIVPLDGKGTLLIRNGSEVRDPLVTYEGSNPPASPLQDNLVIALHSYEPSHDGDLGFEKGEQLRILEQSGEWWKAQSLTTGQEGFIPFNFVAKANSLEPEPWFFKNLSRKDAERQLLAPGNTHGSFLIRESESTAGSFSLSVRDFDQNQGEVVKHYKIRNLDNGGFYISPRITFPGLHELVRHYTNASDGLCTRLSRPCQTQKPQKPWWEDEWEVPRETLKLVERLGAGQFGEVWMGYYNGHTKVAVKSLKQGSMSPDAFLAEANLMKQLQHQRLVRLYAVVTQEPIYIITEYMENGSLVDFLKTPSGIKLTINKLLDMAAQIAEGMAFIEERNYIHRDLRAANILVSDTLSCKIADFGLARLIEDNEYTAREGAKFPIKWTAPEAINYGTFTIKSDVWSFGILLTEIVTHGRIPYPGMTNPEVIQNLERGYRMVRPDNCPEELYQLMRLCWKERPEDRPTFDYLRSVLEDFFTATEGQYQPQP
Method in brief: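 Kinase activity measured as transfer of (^33P) from radiolabeled MgATP to substrate, captured on P30 glass-fiber filtermat, washed in 75 mM phosphoric acid and methanol, then scintillation counted.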

Lyn (h) = Lyn (h) (Homo sapiens, UniProt P07948); test: Lyn human kinase assay (glass-fiber filter); assay type: biochemical; settings: test concentration of 10^−6M; read-out: C10 score (inhibition of Lyn human)
Method in brief: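 Human Lyn (5-10 mU) phosphorylating poly(Glu,Tyr) 4:1 at 0.1 mg/ml with [γ-33P]ATP (concentration as required) in 50 mM Tris pH 7.5, 10 mM Mg acetate, 40 min at room temperature. Stopped with phosphoric acid; substrate-bound radioactivity counted on glass-fibre filter.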

Yes (h) = Yes (h) (Homo sapiens, UniProt P07947); test: Yes human kinase assay (glass-fiber filter); assay type: biochemical; settings: test concentration of 10^−6M; read-out: C11 score (inhibition of Yes human)
Method in brief: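 Yes (h) (5-10 mU) with 0.1 mg/ml poly(Glu, Tyr) 4:1 in 8 mM MOPS pH 7.0, 0.2 mM EDTA, 10 mM MgAcetate and [γ-^33P-ATP], 40 minutes at room temperature. Stopped with phosphoric acid; substrate-bound ^33P counted on glass-fiber filter by scintillation.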

ErbB4 (h) = ErbB4 (h) (Homo sapiens, UniProt Q15303); test: ErbB4 human kinase assay (filter); assay type: biochemical; settings: read-out: C14 ERBB 4 Filter Score
Sequence of ErbB4 (h) (Q15303 26-1308): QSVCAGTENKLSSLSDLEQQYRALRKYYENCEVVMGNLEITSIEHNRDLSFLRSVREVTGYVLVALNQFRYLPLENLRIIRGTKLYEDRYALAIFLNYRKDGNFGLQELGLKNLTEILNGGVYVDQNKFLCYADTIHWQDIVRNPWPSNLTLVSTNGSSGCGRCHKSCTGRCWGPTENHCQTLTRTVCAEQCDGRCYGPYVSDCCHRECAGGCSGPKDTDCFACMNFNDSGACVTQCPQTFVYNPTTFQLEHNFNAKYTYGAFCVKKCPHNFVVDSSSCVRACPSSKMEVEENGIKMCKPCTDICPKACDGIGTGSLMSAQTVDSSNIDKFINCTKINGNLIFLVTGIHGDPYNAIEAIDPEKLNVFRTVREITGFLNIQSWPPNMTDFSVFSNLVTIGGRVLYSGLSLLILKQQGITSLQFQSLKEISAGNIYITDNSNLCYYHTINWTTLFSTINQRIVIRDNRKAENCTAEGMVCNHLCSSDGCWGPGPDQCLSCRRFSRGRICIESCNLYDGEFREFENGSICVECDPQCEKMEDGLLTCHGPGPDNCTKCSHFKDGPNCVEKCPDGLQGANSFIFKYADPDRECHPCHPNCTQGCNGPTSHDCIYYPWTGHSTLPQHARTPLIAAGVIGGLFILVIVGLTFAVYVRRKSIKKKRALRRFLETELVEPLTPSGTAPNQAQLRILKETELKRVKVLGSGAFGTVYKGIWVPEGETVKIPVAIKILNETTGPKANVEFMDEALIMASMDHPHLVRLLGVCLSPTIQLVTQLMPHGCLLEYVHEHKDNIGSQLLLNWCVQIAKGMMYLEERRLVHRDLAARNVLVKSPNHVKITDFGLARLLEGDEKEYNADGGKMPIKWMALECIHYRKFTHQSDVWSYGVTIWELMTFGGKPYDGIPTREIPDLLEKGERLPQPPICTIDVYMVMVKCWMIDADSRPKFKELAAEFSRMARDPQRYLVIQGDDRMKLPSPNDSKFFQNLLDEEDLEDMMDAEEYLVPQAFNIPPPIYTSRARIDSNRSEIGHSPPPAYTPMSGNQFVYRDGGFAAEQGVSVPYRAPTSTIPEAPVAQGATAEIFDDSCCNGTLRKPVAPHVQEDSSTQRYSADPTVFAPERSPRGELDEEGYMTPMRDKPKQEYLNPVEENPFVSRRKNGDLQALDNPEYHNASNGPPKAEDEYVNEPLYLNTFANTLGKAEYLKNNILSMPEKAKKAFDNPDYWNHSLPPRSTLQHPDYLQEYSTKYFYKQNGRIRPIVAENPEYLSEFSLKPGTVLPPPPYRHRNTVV
Experimental: as §1
as §2, with “ErbB4” for “ErbB2”

T1 sequence (P00533 712-979 limits assumed): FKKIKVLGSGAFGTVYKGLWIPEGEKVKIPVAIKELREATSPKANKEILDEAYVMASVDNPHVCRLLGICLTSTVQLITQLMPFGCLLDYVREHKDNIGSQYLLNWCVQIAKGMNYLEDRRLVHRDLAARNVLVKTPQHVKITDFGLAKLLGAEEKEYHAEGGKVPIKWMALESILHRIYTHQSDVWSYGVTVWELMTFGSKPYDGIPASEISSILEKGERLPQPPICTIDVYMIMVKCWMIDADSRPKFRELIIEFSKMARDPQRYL

Row | SMILES | IC50 (EGFR-kinase domain) [nM] | IC50 (ErbB2 (h)) [nM] | IC50 (ErbB4 (h)) [nM] | also measured
1 | COCCOc1ccc2cc1OCCCCCN(C)Cc1cc(F)c(Cl)cc1Nc1cc(ncn1)N2 |  |  |  | ring closure, yield of all isomers (from COCCOc1ccc(Nc2cc(Nc3cc(Cl)c(F)cc3CN(C)CCCCCO)ncn2)cc1O, ether bond, 1,1'-(azodicarbonyl)dipiperidine (ADDP)/tributylphosphine, THF, 28.6 mM, 25.0 °C, 64.0 h): 44%
2 | COc1ccc2cc1OCCNC(=O)C(Cc1ccccc1)NCc1cccc(c1)Nc1cc(ncn1)N2 (centres unmarked) |  |  |  | ring closure, yield of all isomers (from COc1ccc(Nc2cc(Nc3cccc(CNC(Cc4ccccc4)C(=O)O)c3)ncn2)cc1OCCN, amide bond, HBTU, DMF, 3.85 mM, 1.0 h): 14%
3 | O=C1COc2cccc(c2)Nc2nccc(n2)Nc2cccc(c2)OCCCCN1 [Compound 4, 14,22-dioxa-2,4,8,19,29-pentaazatetracyclo[21.3.1.1˜3,7˜.1˜9,13˜]nonacosa-1(27),3,5,7(29),9,11,13(28),23,25-nonaen-20-one] |  |  |  | ring closure, yield of all isomers (from NCCCCOc1cccc(Nc2ccnc(Nc3cccc(OCC(=O)O)c3)n2)c1, amide bond, HBTU, DMF, 7.67 mM, 25.0 °C, 2.0 h): 9%; inhibition at 1 µM (Abl (h)): 10 to 30%; inhibition at 1 µM (cSRC (h)): 30 to 60%; inhibition at 1 µM (Fes (h)): 30 to 60%; inhibition at 1 µM (Flt3 (h)): > 80%; inhibition at 1 µM (Fms (h)): 60 to 80%; inhibition at 1 µM (Lck (h)): 30 to 60%; inhibition at 1 µM (Lyn (h)): 10 to 30%; inhibition at 1 µM (Yes (h)): 30 to 60%
4 | N#Cc1cnc2nc1Nc1cccc(c1)C(=O)NCC(=O)NCc1cccc(c1)N2 [Compound 5, 2,4,8,15,18,26-hexaazatetracyclo[18.3.1.1˜3,7˜.1˜9,13˜]hexacosa-1(24),3,5,7(26),9,11,13(25),20,22-nonaene-6-carbonitrile, 14,17-dioxo-] |  |  |  | ring closure, yield of all isomers (from N#Cc1cnc(Nc2cccc(CNC(=O)CN)c2)nc1Nc1cccc(C(=O)O)c1, amide bond, HBTU, DMF, 22.5 mM, 25.0 °C, 3.0 h): 14%; inhibition at 1 µM (Flt3 (h)): 10 to 30%
5 | COc1ccc2cc1OCCNC(=O)C(Cc1ccc(C(F)(F)F)cc1)NC(=O)CN(C)Cc1cccc(c1)Nc1cc(ncn1)N2 (centres unmarked) [Compound 114] | < 1000 | 1000 to 10000 |  | 
6 | CN(C)CCCCC1NC(=O)CN(C)Cc2cccc(c2)Nc2cc(ncn2)Nc2cccc(c2)CNC1=O (centres unmarked) [Compound 148] | < 1000 | 1000 to 10000 | 1000 to 10000 | 
7 | CN1CC(=O)NC(CCc2ccccc2)C(=O)NCc2cccc(c2)Nc2cc(ncn2)Nc2cccc(c2)C1 (centres unmarked) [Compound 152] | < 1000 | < 1000 | < 1000 | 
8 | CCN1CCNC(=O)C(CCCCN(C)C)NC(=O)CN(C)Cc2cccc(c2)Nc2cc(ncn2)Nc2cccc(c2)C1 (centres unmarked) [Compound 153] |  | 1000 to 10000 |  | 
9 | CCN1CCNC(=O)C(CC(C)C)NC(=O)CN(C)Cc2cccc(c2)Nc2cc(ncn2)Nc2cccc(c2)C1 (centres unmarked) [Compound 154] | 1000 to 10000 | 1000 to 10000 |  | 
10 | CCN1CCNC(=O)C(Cc2ccc(C(F)(F)F)cc2)NC(=O)CN(C)Cc2cccc(c2)Nc2cc(ncn2)Nc2cccc(c2)C1 (centres unmarked) [Compound 156] | < 1000 | 1000 to 10000 | < 1000 | 
11 | CN(C)CCCCC1NC(=O)CN(C)Cc2cccc(c2)Nc2cc(ncn2)Nc2cccc(c2)CN2CCN(CC2)C1=O (centres unmarked) [Compound 159] | < 1000 | 1000 to 10000 |  | 
12 | COc1ccc2cc1OCCCNC(=O)CCN1CCC(CC1)N(C)Cc1ccc(Cl)c(c1)Nc1cc(ncn1)N2 [Compound 216] |  |  | 1000 to 10000 | 

Continued, in another order:

Row | IC50 (EGFR-kinase domain) [nM] | IC50 (ErbB2 (h)) [nM] | IC50 (ErbB4 (h)) [nM] | SMILES | also measured
13 | < 1000 | 1000 to 10000 |  | COc1ccc2cc1OCCNC(=O)C1CN(CCO1)C(=O)CN(C)Cc1cccc(c1)Nc1cc(ncn1)N2 (racemic) [Compound 158] | 
14 | < 1000 | < 1000 | < 1000 | O=C1CN2CCN(CC2)Cc2cccc(c2)Nc2cc(ncn2)Nc2cccc(c2)OCCCCCN1 [Compound 112] | 
15 | < 1000 | 1000 to 10000 | < 1000 | CC(C)CC1NC(=O)CN(C)Cc2cccc(c2)Nc2cc(ncn2)Nc2cccc(c2)CNC1=O (centres unmarked) [Compound 149] | 
16 | < 1000 | < 1000 | < 1000 | C#CCC1NC(=O)CN(C)Cc2cccc(c2)Nc2cc(ncn2)Nc2cccc(c2)CNC1=O (centres unmarked) [Compound 150] | 
17 | < 1000 | < 1000 | < 1000 | CN1CC(=O)N2CCC2C(=O)NCc2cccc(c2)Nc2cc(ncn2)Nc2cccc(c2)C1 (centres unmarked) [Compound 151] | 
18 | < 1000 | 1000 to 10000 | 1000 to 10000 | O=C1COc2cccc(c2)Nc2cc(ncn2)Nc2cccc(c2)CCN1 [Compound 160] | 
19 | < 1000 | 1000 to 10000 | < 1000 | CCN1CCNC(=O)COc2cccc(c2)Nc2cc(ncn2)Nc2cccc(c2)C1 [Compound 161] | 
20 | < 1000 | 1000 to 10000 | 1000 to 10000 | COc1ccc2cc1OCCNC(=O)COc1cccc(c1)Nc1cc(ncn1)N2 [Compound 162] | 
21 |  | < 1000 |  | O=C1COc2cccc(c2)Nc2cc(ncn2)Nc2cccc(c2)OCCCCCN1 [Compound 163] | 
22 |  | 1000 to 10000 | < 1000 | O=C1CN2CCN(CC2)Cc2cccc(c2)Nc2cc(ncn2)Nc2cccc(c2)CCN1 [Compound 164] | 
